Patent US9510593B2, “S-benzylthiouracil compounds and methods of enhancing plant root growth” (Valent BioSciences Corporation, priority 2014, dated 2016)
“Also recorded” adds a separate entry of the source.

Tests used:
Format in all cases: in vivo
[1] = test system: Arabidopsis accession Columbia; assay: Arabidopsis petri plate (agar medium) assay, root growth; settings: 6 days after sowing, control 3.3
Method: For Arabidopsis, a solid medium was required. Typically, half-strength MS salts were dissolved in water, and 1% (w/v) BactoAgar (DIFCO) was added. Following autoclaving, sterile S-Benzylthiouracil solutions were added to medium prior to pouring 30 mL of agar medium per petri plate. Arabidopsis seeds were sown in a sterile manner, and seeds were germinated and grew on the agar surface until primary root length was measured.
Of increased importance for understanding mode of action, Arabidopsis has become the model system of choice. In Table 20, the effect of Compound 1 in growth medium on root growth of Arabidopsis accession Columbia is shown.

[2] = test system: Maize (cultivar; Kuromochi); assay: Maize growth promotion by seed treatment; settings: for Percent (shoot weight, untreated control = 100) / Average weight of the shoots: 18th day after seeding; for Average weight of the shoots: control 3.8
Method: Maize seeds (cultivar; Kuromochi) were treated with Compound 1 at dose rates of 0.005 grams to 0.5 gram per 100 kilogram seeds. The seeds were sown into a soil pot (one seed/pot) and then cultivated in a growth chamber at a temperature of 27° C. and a day length of 16 hours for 18 days. On the 18th day after seeding, the fresh shoot weight of each plant was examined for 3 replicates.

rice = assay: Rice pouch assay: growth of primary root and shoot; settings: for Shoot Length: control 1.7
Method: Seeds were placed in germination pouches consisting of germination paper as an insert in a gas-permeable 16×14 cm plastic pouch (CYG Pouch; Mega International, St. Paul, Minn.). In pouch solution evaluation, S-Benzylthiouracil compounds or their salts were dissolved in a small volume of DMSO and added to sterile water with a maximum of 0.5% v/v DMSO at final dilution. The S-Benzylthiouracil solution was subsequently pipetted into the growth pouch, followed by the addition of seeds of the crop being tested. The pouches were arranged in a randomized complete block design in growth racks and placed in 19-liter polycarbonate food storage containers (Rubbermaid Commercial Products, Winchester, Va.). The sealed containers were held in an upright growth cabinet maintained at 25 C with a 12 hour light: 12 hour dark photoperiod. For rice, plants were harvested at 6 d, while in mungbean and corn, the plants were harvested at 4 d post sowing. Measurements were performed on the primary root and shoot of each seedling. The growth of the primary root of rice was examined in the pouch assay system. The results of the testing, presented as percent change in root length across all S-Benzylthiouracil compounds, are shown below.

[3] = test system: Maize (cultivar; Kuromochi); assay: Maize growth enhancement by seed treatment under low temperature stress; settings: for Average weight of the shoots: 2.5° C. for 4 days, 18th day after seeding, control 1.50
Method: Maize seeds (cultivar; Kuromochi) were treated with Compound 1 at dose rates of 0.005 gram to 0.5 gram per 100 kilogram seeds. The seeds were sown into a soil pot (one seed/pot) and then cultivated in a growth chamber at a temperature of 27° C. and a day length of 16 hours for 10 days. On the 10th day after seeding, the plants were subjected to a temperature of 2.5° C. for 4 days at a day length of 16 hours. Following the stress treatment, they were cultivated for an additional 4 days in a growth chamber at a temperature of 27° C. and a day length of 16 hours. On the 18th day after seeding, the fresh shoot weight of each plant was measured for 5 replicates.

radish cv. Cherry Belle = assay: Radish assay, continuous exposure; settings: for Root Length / Shoot Length: 6 days; for Root Length: control 3.2; for Shoot Length: control 4.0
Source text: In order to determine if a root crop was sensitive to a S-Benzylthiouracil, we tested the effect of Compound 1 on radish cv. Cherry Belle (Table 21).

tomato = assay: Tomato petri plate assay; settings: Solanum lycopersicum, 144 h; 10 ppm; after 6 days of continuous exposure; read-out: Percent Increase (percent change in primary tomato root length)
Method: For tomato, the plants were grown in disposable (150 mm) sterile plastic petri plates (Falcon, BD Biosciences, Franklin Lakes, N.J.). In the tomato assay, a single sheet of Whatman #1 filter paper was placed at the bottom of the plate, 15 tomato seeds were added, and 10 mL of treatment solution was added. At the end of 6 d, the 10 largest seedlings were selected for measurement from each plate. In each study, a minimum of 3 replicate plates were used. In tomato, several S-Benzylthiouracil compounds were tested to determine the effects on root growth.

[4] = seed treatment 0.005 grams/100-kg seeds
[5] = seed treatment 0.05 grams/100-kg seeds
[6] = seed treatment 0.5 grams/100-kg seeds

Oc1ccnc(SCc2cccc(F)c2)n1 [Compound 1, S-(3-Fluorobenzyl)-2-thiouracil]
Root Length ([1]; 0.1 ppm): 3.7 cm | Root Length ([1]; 0.25 ppm): 4.4 cm | Root Length ([1]; 0.5 ppm): 3.7 cm | Root Length ([1]; 1.0 ppm): 3.8 cm | Average fresh shoot weight versus untreated control, in words ([2]; across 0.005 to 0.5 gram per 100 kilogram seeds): larger than that of the untreated control group | Percent (shoot weight, untreated control = 100) [2, 4]: 104% | Average weight of the shoots [2, 4]: 4.0 grams/plant | Percent (shoot weight, untreated control = 100) [2, 5]: 133% | Average weight of the shoots [2, 5]: 5.1 grams/plant | Percent (shoot weight, untreated control = 100) [2, 6]: 115% | Average weight of the shoots [2, 6]: 4.4 grams/plant | Root Length (rice; 10 mg/liter, 6 days after sowing, untreated control 9.67): 10.80 cm | Root Length (rice; 30 mg/liter, 6 days after sowing, untreated control 9.67): 10.34 cm | Shoot Length (rice; 7.5 ppm, 6 days after treatment): 2.2 cm | Root Length (rice; 7.5 ppm, 6 days after treatment, control 5.1): 7.8 cm | Percent Change in Primary Root Length in Rice (rice; 10 ppm (10 mg/L), benzyl ring substitutions, vs control): 19.8% | Percent Change (rice primary root growth) (rice; 10 ppm, compounds and water-soluble salts, 6 days after sowing): 19.8% | Shoot Length (rice; 30 ppm, 6 days after treatment): 2.2 cm | Root Length (rice; 30 ppm, 6 days after treatment, control 5.1): 7.3 cm | Shoot Length (rice; 100 ppm, 6 days after treatment): 1.9 cm | Root Length (rice; 100 ppm, 6 days after treatment, control 5.1): 5.2 cm | change in vivo at 10 ppm (rice; Oryza sativa, 144 h, 10 ppm (10 mg/L), benzyl ring substitutions, vs control, read-out: Percent Change in Primary Root Length in Rice): 19.8% | Effect on rice root growth, in words (rice; rice pouch assay, compared to control): greatest increases in root length compared to all of the other tested compounds; also recorded: dose-dependent increase in root length | Average weight of the shoots ([3]; 0.005 grams/100-kg seeds): 1.78 gram/plant | Percent (shoot weight, untreated control = 100) ([3]; 0.005 grams/100-kg seeds, low temperature stress): 119% | Average weight of the shoots ([3]; 0.05 grams/100-kg seeds): 2.06 gram/plant | Percent (shoot weight, untreated control = 100) ([3]; 0.05 grams/100-kg seeds, low temperature stress): 138% | Average weight of the shoots ([3]; 0.5 grams/100-kg seeds): 1.85 gram/plant | Percent (shoot weight, untreated control = 100) ([3]; 0.5 grams/100-kg seeds, low temperature stress): 124% | Average fresh shoot weight versus untreated control, in words ([3]; across 0.005 to 0.5 gram per 100 kilogram seeds, low temperature stress): larger than that of the untreated control | Root Length (radish cv. Cherry Belle; 1 ppm): 4.1 cm | Shoot Length (radish cv. Cherry Belle; 1 ppm): 4.9 cm | Root Length (radish cv. Cherry Belle; 10 ppm): 3.0 cm | Shoot Length (radish cv. Cherry Belle; 10 ppm): 3.3 cm | Effect on radish root and shoot growth, in words (radish cv. Cherry Belle; continuous exposure): increased root and shoot growth | change in vivo at 10 ppm (tomato): 8.3%
